Test system: 898857-211-R-J1-PDC complex spheroids, growth % test/control
Assay: Anticancer human tumor 898857-211-R-J1-PDC patient-derived melanoma cell line growth inhibition [RAS]
Details: for IC50: curve of first compound; for viability, T/C: stronger effect = lower value
Outline: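 Tumour cells grown as complex spheroids with HUVEC endothelial cells and mesenchymal stem cells, treated with RAS pathway inhibitor combinations. Each agent spans half-log steps from near clinical Cmax, or 10 microM where Cmax is unknown.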

[1] = second compound 0.000949 µM, first compound 0.0316 µM
[2] = second compound 0.000949 µM, first compound 0.1 µM
[3] = second compound 0.003 µM, first compound 0.0316 µM
[4] = second compound 0.003 µM, first compound 0.1 µM
[5] = second compound 0.00949 µM, first compound 0.0316 µM
[6] = second compound 0.00949 µM, first compound 0.1 µM
[7] = second compound 0.03 µM, first compound 0.0316 µM
[8] = second compound 0.03 µM, first compound 0.1 µM
[9] = second compound 0.0949 µM, first compound 0.0316 µM
[10] = second compound 0.0949 µM, first compound 0.1 µM
[11] = second compound 0.3 µM, first compound 0.0316 µM
[12] = second compound 0.3 µM, first compound 0.1 µM
[13] = second compound 0.000949 µM, first compound 0.316 µM
[14] = second compound 0.000949 µM, first compound 1 µM
[15] = second compound 0.000949 µM, first compound 3.16 µM
[16] = second compound 0.000949 µM, first compound 10 µM
[17] = second compound 0.003 µM, first compound 0.316 µM
[18] = second compound 0.003 µM, first compound 1 µM
[19] = second compound 0.003 µM, first compound 3.16 µM
[20] = second compound 0.003 µM, first compound 10 µM
[21] = second compound 0.00949 µM, first compound 0.316 µM
[22] = second compound 0.00949 µM, first compound 1 µM
[23] = second compound 0.00949 µM, first compound 3.16 µM
[24] = second compound 0.00949 µM, first compound 10 µM
[25] = second compound 0.03 µM, first compound 0.316 µM
[26] = second compound 0.03 µM, first compound 1 µM
[27] = second compound 0.03 µM, first compound 3.16 µM
[28] = second compound 0.03 µM, first compound 10 µM
[29] = second compound 0.0949 µM, first compound 0.316 µM
[30] = second compound 0.0949 µM, first compound 1 µM
[31] = second compound 0.0949 µM, first compound 3.16 µM
[32] = second compound 0.0949 µM, first compound 10 µM
[33] = second compound 0.3 µM, first compound 0.316 µM
[34] = second compound 0.3 µM, first compound 1 µM
[35] = second compound 0.3 µM, first compound 3.16 µM
[36] = second compound 0.3 µM, first compound 10 µM
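Note: spheroids exposed to compound for seven days before readout.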
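Throughout, for viability, T/C: 100% = DMSO vehicle control wells.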

`CC(C)n1nc(-c2ccc3oc(N)nc3c2)c2c(N)ncnc21` + CCn1c(-c2cccnc2C(C)OC)c2c3cc(ccc31)N1CCOC(CC(NC(=O)C(C(C)C)N(C)C(=O)C3(F)CCN(C(=O)C#CC(C)(C)N(C)C)CC3)C(=O)N3CCCC(N3)C(=O)OCC(C)(C)C2)C1 was tested, and the IC50 (second compound 0.000949 µM) was 27.1 nM, the IC50 (second compound 0.003 µM) was 23.8 nM and the IC50 (second compound 0.00949 µM) was 23.8 nM. The IC50 (second compound 0.03 µM) was 21 nM, the IC50 (second compound 0.0949 µM) was 15.1 nM and the IC50 (second compound 0.3 µM) was 7.05 nM. The viability, T/C (second compound 0.000949 µM, first compound 0.000316 µM) was 107%, the viability, T/C (second compound 0.000949 µM, first compound 0.001 µM) was 91.6% and the viability, T/C (second compound 0.000949 µM, first compound 0.00316 µM) was 87.2%. For the same molecule, the viability, T/C (second compound 0.000949 µM, first compound 0.01 µM) was 68.7%, the viability, T/C [1] was 46.4% and the viability, T/C [2] was 20.5%. It also gave a viability, T/C (second compound 0.003 µM, first compound 0.000316 µM) of 106%, a viability, T/C (second compound 0.003 µM, first compound 0.001 µM) of 90.9% and a viability, T/C (second compound 0.003 µM, first compound 0.00316 µM) of 78.8%. For the same molecule, the viability, T/C (second compound 0.003 µM, first compound 0.01 µM) was 70%, the viability, T/C [3] was 44.8% and the viability, T/C [4] was 20.4%. For the same molecule, the viability, T/C (second compound 0.00949 µM, first compound 0.000316 µM) was 99.1%, the viability, T/C (second compound 0.00949 µM, first compound 0.001 µM) was 99.2% and the viability, T/C (second compound 0.00949 µM, first compound 0.00316 µM) was 86.2%. The viability, T/C (second compound 0.00949 µM, first compound 0.01 µM) was 75.1%, the viability, T/C [5] was 41.3% and the viability, T/C [6] was 17.7%. The viability, T/C (second compound 0.03 µM, first compound 0.000316 µM) was 103%, the viability, T/C (second compound 0.03 µM, first compound 0.001 µM) was 86.9% and the viability, T/C (second compound 0.03 µM, first compound 0.00316 µM) was 79.9%. The viability, T/C (second compound 0.03 µM, first compound 0.01 µM) was 72.1%, the viability, T/C [7] was 36.8% and the viability, T/C [8] was 17%. It also gave a viability, T/C (second compound 0.0949 µM, first compound 0.000316 µM) of 89.1%, a viability, T/C (second compound 0.0949 µM, first compound 0.001 µM) of 87.2% and a viability, T/C (second compound 0.0949 µM, first compound 0.00316 µM) of 86.5%. It also gave a viability, T/C (second compound 0.0949 µM, first compound 0.01 µM) of 55.6%, a viability, T/C [9] of 35.5% and a viability, T/C [10] of 16.2%. It also gave a viability, T/C (second compound 0.3 µM, first compound 0.000316 µM) of 74.9%, a viability, T/C (second compound 0.3 µM, first compound 0.001 µM) of 64% and a viability, T/C (second compound 0.3 µM, first compound 0.00316 µM) of 61.1%. The viability, T/C (second compound 0.3 µM, first compound 0.01 µM) was 46.3%, the viability, T/C [11] was 30% and the viability, T/C [12] was 13.6%.

`CCC(CC)c1cc(NC2CCC(N)C2)n2nccc2n1` (stereo not drawn) + CCn1c(-c2cccnc2C(C)OC)c2c3cc(ccc31)N1CCOC(CC(NC(=O)C(C(C)C)N(C)C(=O)C3(F)CCN(C(=O)C#CC(C)(C)N(C)C)CC3)C(=O)N3CCCC(N3)C(=O)OCC(C)(C)C2)C1 gave an IC50 (second compound 0.000949 µM) of 1120 nM, an IC50 (second compound 0.003 µM) of 1090 nM and an IC50 (second compound 0.00949 µM) of 968 nM. The IC50 (second compound 0.03 µM) was 1040 nM, the IC50 (second compound 0.0949 µM) was 748 nM and the IC50 (second compound 0.3 µM) was 415 nM. The viability, T/C [1] was 124%, the viability, T/C [2] was 105% and the viability, T/C [13] was 101%. It also gave a viability, T/C [14] of 57.4%, a viability, T/C [15] of 1.07% and a viability, T/C [16] of 0.23%. It also gave a viability, T/C [3] of 109%, a viability, T/C [4] of 106% and a viability, T/C [17] of 103%. The viability, T/C [18] was 54%, the viability, T/C [19] was 0.85% and the viability, T/C [20] was 0.65%. It also gave a viability, T/C [5] of 103%, a viability, T/C [6] of 100% and a viability, T/C [21] of 101%. For the same molecule, the viability, T/C [22] was 48.5%, the viability, T/C [23] was 1.54% and the viability, T/C [24] was 0.27%. It also gave a viability, T/C [7] of 108%, a viability, T/C [8] of 109% and a viability, T/C [25] of 102%. It also gave a viability, T/C [26] of 51.9%, a viability, T/C [27] of 0.7% and a viability, T/C [28] of 0.63%. It also gave a viability, T/C [9] of 94.9%, a viability, T/C [10] of 105% and a viability, T/C [29] of 80.4%. For the same molecule, the viability, T/C [30] was 40.9%, the viability, T/C [31] was 0.82% and the viability, T/C [32] was 0.45%. For the same molecule, the viability, T/C [11] was 83.5%, the viability, T/C [12] was 72.2% and the viability, T/C [33] was 59.9%. It also gave a viability, T/C [34] of 22.7%, a viability, T/C [35] of 1.27% and a viability, T/C [36] of 0.27%.

Molecule `C[C@@H](NC(=O)c1ncnc(N)c1Cl)c1ncc(C(=O)Nc2cc(C(F)(F)F)c(Cl)cn2)s1` + CCn1c(-c2cccnc2C(C)OC)c2c3cc(ccc31)N1CCOC(CC(NC(=O)C(C(C)C)N(C)C(=O)C3(F)CCN(C(=O)C#CC(C)(C)N(C)C)CC3)C(=O)N3CCCC(N3)C(=O)OCC(C)(C)C2)C1 has an IC50 (second compound 0.000949 µM) of 3860 nM, an IC50 (second compound 0.003 µM) of 2550 nM and an IC50 (second compound 0.00949 µM) of 3120 nM. For the same molecule, the IC50 (second compound 0.03 µM) was 3880 nM, the IC50 (second compound 0.0949 µM) was 3030 nM and the IC50 (second compound 0.3 µM) was 1970 nM. For the same molecule, the viability, T/C [1] was 121%, the viability, T/C [2] was 114% and the viability, T/C [13] was 112%. The viability, T/C [14] was 83.5%, the viability, T/C [15] was 56.2% and the viability, T/C [16] was 27.5%. The viability, T/C [3] was 128%, the viability, T/C [4] was 105% and the viability, T/C [17] was 103%. It also gave a viability, T/C [18] of 66.4%, a viability, T/C [19] of 45.6% and a viability, T/C [20] of 28.8%. The viability, T/C [5] was 114%, the viability, T/C [6] was 120% and the viability, T/C [21] was 111%. For the same molecule, the viability, T/C [22] was 81.3%, the viability, T/C [23] was 52.1% and the viability, T/C [24] was 27.9%. It also gave a viability, T/C [7] of 123%, a viability, T/C [8] of 116% and a viability, T/C [25] of 97.4%. For the same molecule, the viability, T/C [26] was 83.7%, the viability, T/C [27] was 53.6% and the viability, T/C [28] was 26.6%. The viability, T/C [9] was 105%, the viability, T/C [10] was 100% and the viability, T/C [29] was 87.2%. For the same molecule, the viability, T/C [30] was 66.7%, the viability, T/C [31] was 51.7% and the viability, T/C [32] was 24.9%. The viability, T/C [11] was 82.9%, the viability, T/C [12] was 87.9% and the viability, T/C [33] was 73.2%. It also gave a viability, T/C [34] of 62.5%, a viability, T/C [35] of 41.8% and a viability, T/C [36] of 21.3%.

In the case of `Cc1nc(N2CCC3(CC2)COC(C)C3N)c(CO)nc1Sc1ccnc(N)c1Cl` (stereo not drawn) + CCn1c(-c2cccnc2C(C)OC)c2c3cc(ccc31)N1CCOC(CC(NC(=O)C(C(C)C)N(C)C(=O)C3(F)CCN(C(=O)C#CC(C)(C)N(C)C)CC3)C(=O)N3CCCC(N3)C(=O)OCC(C)(C)C2)C1, the IC50 (second compound 0.000949 µM) is reported as over 10000 nM, the IC50 (second compound 0.003 µM) is reported as over 10000 nM and the IC50 (second compound 0.00949 µM) is reported as over 10000 nM. It also gave an IC50 (second compound 0.03 µM) of over 10000 nM, an IC50 (second compound 0.0949 µM) of over 10000 nM and an IC50 (second compound 0.3 µM) of over 10000 nM. It also gave a viability, T/C [1] of 94.5%, a viability, T/C [2] of 94.9% and a viability, T/C [13] of 103%. It also gave a viability, T/C [14] of 98.8%, a viability, T/C [15] of 93.1% and a viability, T/C [16] of 90.6%. It also gave a viability, T/C [3] of 98.6%, a viability, T/C [4] of 98.5% and a viability, T/C [17] of 97.6%. The viability, T/C [18] was 95.7%, the viability, T/C [19] was 113% and the viability, T/C [20] was 93.4%. For the same molecule, the viability, T/C [5] was 99.7%, the viability, T/C [6] was 104% and the viability, T/C [21] was 107%. It also gave a viability, T/C [22] of 96%, a viability, T/C [23] of 92.3% and a viability, T/C [24] of 85.1%. The viability, T/C [7] was 93.2%, the viability, T/C [8] was 90.2% and the viability, T/C [25] was 96.8%. For the same molecule, the viability, T/C [26] was 109%, the viability, T/C [27] was 89.5% and the viability, T/C [28] was 92%. For the same molecule, the viability, T/C [9] was 90.6%, the viability, T/C [10] was 100% and the viability, T/C [29] was 87.7%. It also gave a viability, T/C [30] of 96.3%, a viability, T/C [31] of 92% and a viability, T/C [32] of 88.6%. The viability, T/C [11] was 85.2%, the viability, T/C [12] was 82.7% and the viability, T/C [33] was 77.4%. It also gave a viability, T/C [34] of 76.9%, a viability, T/C [35] of 74.2% and a viability, T/C [36] of 69.5%.

— PubChem BioAssay AID2060882 (Molecular Pharmacology Branch, DTP, NCI, 2025)
